From US5776935A, “Pyrido-phtalazin diones and their use against neurological disorders associated with excitotoxicity and malfunctioning of glutamatergic neurotransmission” (Merz & Co. GmbH & Co., priority 1996, dated 1998) come the findings set out here.

Series [1] deals with T1, NMDA receptor (Rattus norvegicus, UniProt P35439).
T1 construct: endogenous in cells
The series can be described thus: Microelectrophoretic application of NMDA to spinal neurones in vivo. As to conditions: i.v., responses of single rat spinal neurones. Here is the method: (§1) The ability of these glycineB antagonists to act as NMDA receptor antagonists in vivo was assessed using i.v. administration against responses of single neurones in the rat spinal cord to microelectrophoretic application of AMPA and NMDA.

The target in series [2] is T2, NMDA receptor (Mus musculus, UniProt P35438).
T2 construct: from tissue; host or cells: living mice (albino Swiss males for NMDA and PTZ tests, NMR females for MES)
Nature of the series: NMDA-induced convulsions / lethality test. The series is classed as in vivo. The settings on record: ip, 0.25 h, i.p., 15 min before induction, read-out: NMDA ID50. As to the method: To assess NMDA receptor antagonistic properties of the tested agents by assessing anticonvulsive effects. Additionally the role of organic acid transporters in the elimination from the brain of tested agents was assessed by using an inhibitor, Probenicid, on the duration of anticonvulsive activity.
Male albino Swiss mice (19-21 g) housed 10-15 per cage were used for the NMDA lethality test (Leander et al., 1988). For pentylenetetrazol (PTZ)-induced convulsions male albino Swiss mice (25-34 g.) housed 40 per cage (58×38×20 cm) were used while in the maximal electroshock (MES) and motor impairment tests NMR female mice (18-28 g) housed 5 per cage were employed. All animals were kept with water and food ad libittum under a 12-h light-dark cycle (light on at 6 a.m.), and at a controlled temperature (20°±0.5° C.). All experiments were performed between 10 a.m. and 5 p.m. Tested agents were injected 15 min. i.p before the induction of convulsions if not stated otherwise (see below). Mrz 2/502 was dissolved in saline added with NaOH. Most other agents were dissolved in the following solution: 0.606 g Tris; 5.0 g. glucose; 0.5 g. Tween 80; and 95 ml water. The choline and tetramethylammonium salts were dissolved in distilled water.
In the NMDA-induced convulsions test in mice, a dose-response relationship for NMDA was first performed to determine the ED97 dose which was then used for testing of antagonistic properties. After injection of the ED97 dose of NMDA the animals were placed in a small cage (20×28×14 cm) and observed for 20 min. Death preceded by clonic convulsions and by tonic seizures was the pharmacological end-point.

A further series deals with AMPA. The series can be described thus: Microelectrophoretic application of AMPA to spinal neurones in vivo. The settings on record: i.v., responses of single rat spinal neurones. As to the method: as §1
The next series relates to cortical neurones. The series can be described thus: Excitotoxicity in vitro (NMDA, LDH efflux). The series is classed as cell-based, rat. The settings on record: for IC50: Rattus norvegicus, Cortical neurone, 0.5 mM NMDA/1 μM glycine, 24 h, read-out: Cytotoxicity in vitro IC50; for neuroprotection in vitro: low μM concentrations. Here is the method: Isolation of cortical neurones was similar to that described for patch clamp recordings except for the use of foetal rats at 17-19 days gestation. Neurones were plated in 24-multiwell (Greiner) at a density of 300,000 cells/well coated with poly-D-lysine 0.025 mg/ml. Cells were cultured in Dulbecco's modified essential medium (DMEM, GIBCO) supplemented with 10% heat inactivated foetal calf serum (GIBCO). Cultures were maintained at 37° C. at 5% CO2. The medium was changed first after one week and then every 3 days by replacing half of the medium with fresh medium. Cultures aged 17 days were used for experiments.
Exposure to EAA was performed in serum-free MEM-N2 medium (Bottenstein 1979) containing 0.5 mM NMDA/1 μM glycine and the drug to be tested. Cells were pre-incubated with drugs and 1 μM glycine for 15 minutes before addition of NMDA. After 24 h the cytotoxic effect was morphologically examined under a phase contrast microscope and biochemically quantitified by measuring the efflux of LDH.
The activity of LDH was determined in the supernatant after 24 h according to the method of Wroblewski and La Due (1955). Briefly, 0.1 ml of the supernatant was added to 0.9 ml sodium-phosphate buffer (pH=7.5) containing sodium pyruvate (22.7 mM) and NADH (0.8 mg/10 ml) at room temperature. The conversion of pyruvate to lactate was recorded at 340 nm over 10 minutes in a Kontron Spectrophotometer.

The subject of a further series is AMPA receptor. Nature of the series: Patch clamp, inward currents to AMPA in cultured superior colliculus neurones. As to conditions: AMPA 100 μM. The series is classed as cell-based, rat. Here is the method: Cells were mechanically dissociated in 0.05% DNAase / 0.3% ovomucoid (Sigma) following a 15 minute pre-incubation with 0.66% trypsin / 0.1% DNAase (Sigma). The dissociated cells were then centrifuged at 18G for 10 minutes, resuspended in minimum essential medium (Gibco) and plated at a density of 200,000 cells cm onto poly-L-lysine (Sigma)-precoated plastic petri dishes (Falcon). The cells were nourished with NaHCO3 /HEPES-buffered minimum essential medium supplemented with 5% foetal calf serum and 5% horse serum (Gibco) and incubated at 37° C. with 5%CO2 at 95% humidity. The medium was exchanged completely following inhibition of further glial mitosis with cytosine-β-D-arabinofuranoside (20 μM Sigma) after about 7 days in vitro. Thereafter the medium was exchanged partially twice weekly. […] Moreover, the relatively small neurones (soma 15-20 μm .phi.) are ideally suited to minimise problems of buffered diffusion for concentration clamp experiments.
Patch clamp recordings were made from these neurones with polished glass electrodes (4-6 m.OMEGA.) in the whole cell mode at room temperature (20°-22° C.) with the aid of an EPC-7 amplifier (List). Test substances were applied by switching channels of a custom made fast superfusion system with a common outflow (10-20 ms exchange times). The contents of the intracellular solution were as follows (mM): CsCl (120), TEACl (20), EGTA (10), MgCl2 (1), CaCl2 (0.2), glucose (10), ATP (2), cAMP (0.25); pH was adjusted to 7.3 with CsOH or HCl. The extracellular solutions had the following basic composition (mM): NaCl (140), KCl (3), CaCl2 (0.2), glucose (10), HEPES (10), sucrose (4.5), tetrodotoxin (TTX 3*10-4). For most experiments glycine (1 μM) was present in all solutions. Experiments to test the glycine-dependence of the tricyclic "pyrido-phtalazin diones" were performed in the continuous presence of increasing concentrations of glycine (1-10 μM).
In contrast, three of these potent glycine, antagonists were only very weak antagonists of inward currents to AMPA (100 μM). […] This profile of action, although very weak, is typical for competitive AMPA receptor antagonists which preferentially block the peak non-desensitised state, low affinity state of the receptor (see Parsons et al., 1994).
(In patch-clamp work, channel activity is measured electrically.)

A short description of series [3]: In vivo systemic and / or CNS availability.
The mark [4] stands for this setting: peak currents, read-out: IC50 against peak AMPA induced currents.
Setting [5] is: peak currents, read-out: Peak AMPA IC50.
Setting [6] is: plateau currents, read-out: Plateau AMPA IC50.

Read-outs that look alike come from different tables or passages of the source.

Regarding `O=c1[nH][nH]c(=O)c2nc3ccc(F)cc3cc12` [Mrz 2/519], the “Microelectrophoretic NMDA ID50” value on NMDA receptor [1] is given as over 16.0 mg/kg. Also, the ED50 on NMDA receptor [2] is over 100 mg/kg. Further, the “Microelectrophoretic AMPA ID50” value in the series with AMPA was over 16.0 mg/kg.
Usually IC50 stands for the concentration needed to halve the response being measured. For the molecule `O=c1[nH][nH]c(=O)c2nc3ccc(Br)cc3cc12` [Mrz 2/503], on NMDA receptor [2], the ED50 is over 100 mg/kg. Further, the IC50 in the series on cortical neurones was over 20 µM.
In the case of `O=c1[nH]nc(O)c2c1cc1cc(Br)ccc1[n+]2[O-]` [Mrz 2/514, 8-bromo-4-hydroxy-1-oxo-1,2-dihydropyridazino[4,5-b]-quinoline 5-oxide], the ED50 on NMDA receptor [2] is 99 mg/kg. Also, the IC50 was 73 µM with AMPA receptor (setting [4]); 72.7 µM in the series with AMPA receptor (setting [5]); 307 µM in the series with AMPA receptor (plateau currents, listed as 514, read-out: Plateau AMPA IC50); over 100 µM with AMPA receptor (setting [6]). Moreover, in series [3], the “in vivo systemic and / or CNS availability versus associated class I compounds” value is listed as “much better”.
For `O=c1[nH]nc(O)c2c1cc1cc(Cl)ccc1[n+]2[O-]` [Mrz 2/502, 8-chloro-4-hydroxy-1-oxo-1,2-dihydropyridazino[4,5-b]-quinoline 5-oxide], the “Microelectrophoretic NMDA ID50” value at NMDA receptor [1] and on NMDA receptor [1] (listed as 502) was 1.2 mg/kg in each case. Also, the ED50 on NMDA receptor [2] was found to be 26 mg/kg. Moreover, the IC50 was 25 µM with AMPA receptor (setting [4]); 25 µM in the series with AMPA receptor (setting [5]); 150 µM in the series on AMPA receptor (plateau currents, listed as 502, read-out: Plateau AMPA IC50); over 100 µM with AMPA receptor (setting [6]); under 5 µM in the series with cortical neurones. Moreover, in the series with cortical neurones, the neuroprotection in vitro result is recorded as “effective neuroprotectants”. Also, in the series with AMPA (listed as 502), the “Microelectrophoretic AMPA ID50” value is recorded as 4.9 mg/kg.
`O=c1[nH]nc(O)c2c1cc1cc(F)ccc1[n+]2[O-]` [Mrz 2/516, 8-fluoro-4-hydroxy-1-oxo-1,2-dihydropyridazino[4,5-b]-quinoline 5-oxide]: the “Microelectrophoretic NMDA ID50” value at NMDA receptor [1] and at NMDA receptor [1] (listed as 516) was 1.8 mg/kg in each case. The ED50 at NMDA receptor [2] stood at 40 mg/kg. In addition, the IC50 in the series on AMPA receptor (setting [4]) was 18 µM; in the series on AMPA receptor (setting [5]), 17.6 µM; with AMPA receptor (setting [6]), over 100 µM. For the same molecule, in the series on AMPA (listed as 516), the “Microelectrophoretic AMPA ID50” value is 3.6 mg/kg. The “in vivo systemic and / or CNS availability versus associated class I compounds” value in series [3] is reported as “much better”.
Take `O=c1[nH][nH]c(=O)c2nc3ccc(Cl)cc3cc12` [Mrz 2/501]: the “Microelectrophoretic NMDA ID50” value at NMDA receptor [1] is over 16.0 mg/kg. The ED50 on NMDA receptor [2] was over 100 mg/kg. For the same molecule, in the series with cortical neurones, the IC50 was under 5 µM and the neuroprotection in vitro entry is reported as “effective neuroprotectants”. For the same molecule, the “Microelectrophoretic AMPA ID50” value with AMPA is over 16.0 mg/kg.
As for `O=c1[nH][nH]c(=O)c2nc3cc(Cl)c(Cl)cc3cc12` [Mrz 2/515], the ED50 at NMDA receptor [2] is 98 mg/kg.
